Patent US5973228A, “Coniferin beta-glucosidase cDNA for modifying lignin content in plants” (University of British Columbia, priority 1998, dated 1999)

Assays:
[1] = molecular target: T1, native coniferin beta-glucosidase (CBG) purified from pine xylem (Pinus contorta, UniProt Q9ZT64); assay: β-glucosidase assay, substrate specificity of coniferin β-glucosidase purified from pine xylem; assay type: biochemical; conditions: substrate hydrolysis relative to coniferin; 100% activity represents 14pKat; 2 mM glucoside substrate, 0.2M MES pH 5.5, 30° C., 30 min
T1 construct: from tissue; host or cells: Pinus contorta xylem
T1 sequence (Q9ZT64 24-513): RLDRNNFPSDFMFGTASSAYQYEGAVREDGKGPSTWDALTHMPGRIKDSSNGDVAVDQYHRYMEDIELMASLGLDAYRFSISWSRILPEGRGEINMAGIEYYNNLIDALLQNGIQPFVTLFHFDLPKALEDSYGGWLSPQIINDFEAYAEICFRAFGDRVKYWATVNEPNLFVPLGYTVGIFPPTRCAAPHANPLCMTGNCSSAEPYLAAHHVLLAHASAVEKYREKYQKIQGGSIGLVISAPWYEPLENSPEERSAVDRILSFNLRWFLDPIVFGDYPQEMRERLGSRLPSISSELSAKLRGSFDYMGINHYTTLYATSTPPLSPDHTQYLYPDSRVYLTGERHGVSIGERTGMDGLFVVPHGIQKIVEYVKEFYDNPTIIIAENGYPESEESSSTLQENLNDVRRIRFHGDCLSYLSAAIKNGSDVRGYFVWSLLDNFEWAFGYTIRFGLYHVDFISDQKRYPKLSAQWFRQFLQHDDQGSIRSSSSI
Source text: Coniferin beta-glucosidase enzyme was purified from Pinus contorta xylem tissue as described by Dharmwardhana et al. (1995). In order to determine the N-terminal amino acid sequence of the purified enzymne, it was run on native PAGE gels, stained for activity on the synthetic coniferin substrate VRA-G and the staining band excised and subjected to SDS-PAGE. The protein was then transferred to an Immobilon membrane for N-terminal amino acid sequencing using an Applied Biosystems 470A gas phase sequencer (Edman degradation).
(§1) As noted above, the functional characteristic of the CBG enzyme is its ability to hydrolyze coniferin. This activity can be measured using the simple β-glucosidase assay described by Dharwardhana et al. (1995), conducted as follows: enzyme preparations (10-50 μl) and glucoside substrate (coniferin) (2 mM final concentration) in 0.2M MES, pH 5.5 buffer in a final volume of 150 μl are incubated at 30° C. for 30 min. The reaction is stopped by basification of the assay mixture with an equal volume of 0.5M CAPS buffer (Sigma Chemical Co., St. Louis, Mo., pH 10.5 and the activity measured by determining the absorbance of the released aglycone. The activity of the enzyme can be measured not only against coniferin, but also against related glucosides including 4-NPG, 2-NPG, MUG and the synthetic coniferin analog VRA-G. For quantitative calculations, the following analysis wavelengths and values (mM^-1 ×cm^-1) were used: coniferyl alcohol, 325 nm, ε=7.0; sinapyl alcohol, 315 nm, ε=11.2; 2-nitrophenol, 420 nm, ε=4.55, 4-nitrophenol, 400 nm, ε=19.3; 4-methyl umbelliferone, 360 nm, ε=18.25; VRA-G, 490 nm, ε=38.6; salicyl alcohol, 295 nm, ε=3.3.

[2] = molecular target: T2, E. coli-expressed (recombinant) coniferin beta-glucosidase (CBG) (Pinus contorta, UniProt Q9ZT64); assay: β-glucosidase assay, substrate specificity of E. coli-expressed CBG-cDNA; assay type: biochemical; conditions: substrate hydrolysis relative to coniferin; 100% activity represents 22pKat; 2 mM glucoside substrate, 0.2M MES pH 5.5, 30° C., 30 min
T2 construct: coding region for the mature protein (i.e. excluding the signal peptide) was amplified; Met-Ala-Ser (three non-CBG vector residues) (N); made in house; host or cells: E. coli BL21 (DE3), vector pET21a
T2 sequence (Q9ZT64 24-513): T1 sequence (Q9ZT64 24-513)
Source text: To express CBG protein in E. coli, the full- length coding region for the mature protein (i.e. excluding the signal peptide) was amplified using the 3' end clone (1A6) as the template with the N-terminal primer, NT1 (5' […] 3', Seq. I.D. No. 9) containing a 5' Nhe1 site, and a C-terminal primer, CT1 (5' […] 3', Seq. I.D. No. 10) containing a Xho 1 site. The resulting 1.5 kb DNA fragment was ligated into Bluescript II KS by T/A cloning as described above. The structure of the junctions of this construct was confirmed by sequencing and it was then inserted as a Nhe1/Xho1 fragment into expression vector pET21a (Novagen). Because, the Nhe1 site was used to introduce the cDNA into the pET vector, three non-CBG amino acids (Met, Ala, Ser) were added to the N-terminus of the expressed protein. To avoid the expression of the vector His-tag at the 3' end, the native stop codon of CBG was included. The expressed protein was thus identical in sequence to the mature CBG expressed in planta, except for the additional tripeptide at the N-terminus. Following transformation into E.coli strain DH5α and verification of the plasmid integrity by restriction digestion, it was introduced into the expression host BL21 (DE3).
To express CBG, the bacteria were grown to log phase (A600 =0.6-0.9) followed by an additional 2-3 h incubation at 29-37° C. in the presence or absence of 0.4-1 mM IPTG. The expressed CBG in the soluble protein fraction was purified by preparative Q-Sepharose chromatography followed by QMA-Memsep (Millipore) chromatography.
as §1
Soluble proteins and insoluble proteins (inclusion bodies) prepared from induced and uninduced bacterial cells were assayed for coniferin hydrolysis activity by the method described above. […] The activity in this fraction could be increased up to 2-fold by increasing the IPTG concentration from 0.4 -1.0 mM, and by reducing the growing temperature from 37° C. to 29° C. […] This protein was purified by anion exchange chromatography using coniferin as the substrate for monitoring β-glucosidase activity. The purified enzyme often migrated as a doublet on nondenaturing gels. […] The latter would result in the synthesis of a polypeptide that is truncated at the N-terminus, as opposed to the full-length polypeptide initiated by ribosome binding to the standard ribosome binding site in the vector.

Row | SMILES | Relative activity, Native CBG [1] | Relative activity, E. coli CBG [2]
1 | O=[N+]([O-])c1ccccc1O[C@@H]1O[C@H](CO)[C@@H](O)[C@H](O)[C@H]1O [2-nitrophenyl-β-glucoside, 2-nitrophenyl β-glucoside] | 51% | 50%
2 | Cc1cc(=O)oc2cc(O[C@@H]3O[C@H](CO)[C@@H](O)[C@H](O)[C@H]3O)ccc12 [4-methyl umbelliferyl-β-glucoside, 4-methylumbelliferyl β-glucoside] | 18% | 20%
3 | O=[N+]([O-])c1ccc(O[C@@H]2O[C@H](CO)[C@@H](O)[C@H](O)[C@H]2O)cc1 [4-nitrophenyl-β-glucoside, 4-nitrophenyl β-glucoside] | 30% | 35%
4 | COc1cc(/C=C/CO)ccc1O[C@@H]1O[C@H](CO)[C@@H](O)[C@H](O)[C@H]1O [coniferin] | 100% | 100%
5 | COc1cc(/C=C/CO)cc(OC)c1O[C@@H]1O[C@H](CO)[C@@H](O)[C@H](O)[C@H]1O [syringin] | 51% | 65%
